Experimental data taken from patent US20020032328A1, “Heterocyclic acylsulfimides, processes for their preparation, compositions comprising them and their use as pesticides” (priority 2000, published 2002).

Key:
[1] = test system: black bean aphids (Aphis fabae); assay: Aphis fabae dip test on field bean (plants and aphids dipped in preparation); assay type: in vivo; conditions: read-out: mortality among the aphids
[2] = test system: black bean aphids (Aphis fabae); assay: Aphis fabae root-systemic test on field bean; assay type: in vivo; conditions: read-out: mortality among the aphids, by root-systemic action

SMILES	mortality at 300 ppm [1] [%]	mortality at 30 ppm [2] [%]
C/S(=N\C(=O)c1cnccc1C(F)(F)F)c1ccsc1 (stereo not shown) [Example 66]	90 to 100	90 to 100
CS(=O)(=NC(=O)c1cnccc1C(F)(F)F)c1ccc(Oc2cccc(F)c2C#N)cc1 (stereo not shown) [Example 718]	90 to 100	90 to 100
